From ChEMBL document CHEMBL5465560, “Selectivity Literature for EUbOPEN Chemogenomic Library” (2024) come the findings set out here.

The structures appear in SMILES notation.

The target of test [1] is T1, Serine/threonine-protein kinase DCLK2 (Homo sapiens) (UniProt Q8N568).
T1 sequence (whole entry): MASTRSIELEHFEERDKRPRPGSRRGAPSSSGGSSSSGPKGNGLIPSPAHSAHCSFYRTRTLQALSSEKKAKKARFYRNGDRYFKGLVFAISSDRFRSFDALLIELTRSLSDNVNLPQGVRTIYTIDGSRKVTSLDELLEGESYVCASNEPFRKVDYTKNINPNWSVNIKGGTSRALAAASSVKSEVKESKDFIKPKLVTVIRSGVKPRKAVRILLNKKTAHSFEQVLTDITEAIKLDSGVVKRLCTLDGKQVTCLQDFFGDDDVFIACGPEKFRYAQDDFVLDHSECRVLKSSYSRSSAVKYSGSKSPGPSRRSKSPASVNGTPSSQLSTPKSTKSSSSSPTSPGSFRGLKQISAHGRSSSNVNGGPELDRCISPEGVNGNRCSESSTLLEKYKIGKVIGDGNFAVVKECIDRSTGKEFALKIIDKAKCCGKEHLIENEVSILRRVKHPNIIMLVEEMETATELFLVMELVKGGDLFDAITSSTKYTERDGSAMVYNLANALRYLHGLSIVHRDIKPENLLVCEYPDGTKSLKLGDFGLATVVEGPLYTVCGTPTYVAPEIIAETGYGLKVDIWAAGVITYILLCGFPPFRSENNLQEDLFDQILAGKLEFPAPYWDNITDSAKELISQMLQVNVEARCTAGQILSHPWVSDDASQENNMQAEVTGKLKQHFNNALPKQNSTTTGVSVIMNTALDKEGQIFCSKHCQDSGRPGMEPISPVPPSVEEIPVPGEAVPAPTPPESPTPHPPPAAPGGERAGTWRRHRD
As to the kind of experiment: Selectivity interaction (ProQinase) EUB0000171b DCLK2.

Test [2] concerns the target T2, Ephrin type-A receptor 1 (Homo sapiens) (UniProt P21709).
T2 sequence (whole entry): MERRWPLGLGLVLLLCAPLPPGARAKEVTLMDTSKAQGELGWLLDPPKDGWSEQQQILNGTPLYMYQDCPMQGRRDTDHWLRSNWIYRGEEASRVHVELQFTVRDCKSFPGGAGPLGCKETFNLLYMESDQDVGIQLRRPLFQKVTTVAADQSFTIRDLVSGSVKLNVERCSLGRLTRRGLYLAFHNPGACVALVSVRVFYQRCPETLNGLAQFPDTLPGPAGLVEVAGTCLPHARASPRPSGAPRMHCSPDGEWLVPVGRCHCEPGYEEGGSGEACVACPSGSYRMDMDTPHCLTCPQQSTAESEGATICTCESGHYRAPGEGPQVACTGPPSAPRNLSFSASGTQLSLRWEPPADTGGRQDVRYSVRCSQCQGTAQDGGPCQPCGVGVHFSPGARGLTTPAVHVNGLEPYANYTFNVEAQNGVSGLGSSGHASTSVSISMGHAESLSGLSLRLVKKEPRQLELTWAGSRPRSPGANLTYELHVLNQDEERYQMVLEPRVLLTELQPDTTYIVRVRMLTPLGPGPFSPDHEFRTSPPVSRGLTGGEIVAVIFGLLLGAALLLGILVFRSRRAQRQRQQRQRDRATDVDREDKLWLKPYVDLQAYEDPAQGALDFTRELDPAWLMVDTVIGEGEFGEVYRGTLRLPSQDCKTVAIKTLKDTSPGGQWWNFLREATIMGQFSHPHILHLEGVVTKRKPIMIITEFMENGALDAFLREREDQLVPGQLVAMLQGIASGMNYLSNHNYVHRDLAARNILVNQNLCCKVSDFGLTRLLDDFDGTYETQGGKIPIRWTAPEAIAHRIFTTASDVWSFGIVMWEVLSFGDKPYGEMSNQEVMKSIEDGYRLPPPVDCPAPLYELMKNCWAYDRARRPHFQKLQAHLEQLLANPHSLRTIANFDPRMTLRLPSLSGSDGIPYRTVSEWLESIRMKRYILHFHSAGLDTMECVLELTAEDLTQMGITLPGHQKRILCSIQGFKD
Conditions: at 10 µM.

In test [3] the test system is Tyrosine-protein kinase ABL1 (Homo sapiens), P00519 [H396P]. As to the kind of experiment: Selectivity interaction (KinomeScan (DiscoverX)) EUB0001049a ABL1. Conditions: at 1 µM.
The target of test [4] is Tyrosine-protein kinase Srms (Homo sapiens) (UniProt Q9H3Y6). Description: Selectivity interaction (KinomeScan (DiscoverX)) EUB0000666a SRMS. To be noted: at 10 µM.
For test [5], the target named is T3, Mitogen-activated protein kinase kinase kinase 2 (Homo sapiens) (UniProt Q9Y2U5).
T3 sequence (whole entry): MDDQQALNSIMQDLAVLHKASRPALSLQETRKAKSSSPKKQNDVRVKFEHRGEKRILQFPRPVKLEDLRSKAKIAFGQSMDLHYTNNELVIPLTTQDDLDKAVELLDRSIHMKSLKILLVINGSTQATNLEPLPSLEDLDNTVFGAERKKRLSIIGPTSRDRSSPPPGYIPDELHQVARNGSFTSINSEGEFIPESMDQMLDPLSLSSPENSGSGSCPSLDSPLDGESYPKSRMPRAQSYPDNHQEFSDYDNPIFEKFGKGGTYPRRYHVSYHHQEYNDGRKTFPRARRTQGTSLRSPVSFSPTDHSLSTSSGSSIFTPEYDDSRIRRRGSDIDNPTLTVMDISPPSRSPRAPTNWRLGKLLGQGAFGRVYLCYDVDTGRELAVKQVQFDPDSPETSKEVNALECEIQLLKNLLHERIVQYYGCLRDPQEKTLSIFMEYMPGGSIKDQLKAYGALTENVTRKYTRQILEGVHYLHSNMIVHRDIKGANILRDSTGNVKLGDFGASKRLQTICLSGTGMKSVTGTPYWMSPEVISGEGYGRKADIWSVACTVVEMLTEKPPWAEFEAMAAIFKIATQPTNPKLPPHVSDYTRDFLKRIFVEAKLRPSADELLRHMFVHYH
As to the kind of experiment: Selectivity interaction (ActivX KiNativ screen (kinase selectivity in THP-1 cell lysates)) EUB0000639a MAP3K2. It is filed as subcellular. To be noted: lysate, at 5 µM.

The target in test [6] is Tyrosine-protein kinase CSK (Homo sapiens) (UniProt P41240). As to the kind of experiment: Selectivity interaction (KinomeScan (DiscoverX)) EUB0001619a CSK. To be noted: at 1 µM.
Test [7] concerns the target Ribosomal protein S6 kinase alpha-1 (Homo sapiens, UniProt Q15418). As to the kind of experiment: Selectivity interaction (ActivX KiNativ screen (ex vivo kinase selectivity in human PBMCs)) EUB0001619a RPS6KA1. The format is cell-based. To be noted: PBMC, at 1 µM.
For test [8], the target named is Serine/threonine-protein kinase PLK1 (Homo sapiens, UniProt P53350). As to the kind of experiment: Selectivity interaction (Kinase panel (KiNativ target engagement assay in Jurkat cells)) EUB0001635a PLK1. The format is cell-based. Conditions: Selectivity number of off-targets 0.0, Selectivity number of targets 233.0, Source Knowledge https://www.sciencedirect.com/science/article/pii/S2451945619300674?via%3Dihub, at 1 µM.
Sequence of Serine/threonine-protein kinase PLK1 (P53350 whole entry): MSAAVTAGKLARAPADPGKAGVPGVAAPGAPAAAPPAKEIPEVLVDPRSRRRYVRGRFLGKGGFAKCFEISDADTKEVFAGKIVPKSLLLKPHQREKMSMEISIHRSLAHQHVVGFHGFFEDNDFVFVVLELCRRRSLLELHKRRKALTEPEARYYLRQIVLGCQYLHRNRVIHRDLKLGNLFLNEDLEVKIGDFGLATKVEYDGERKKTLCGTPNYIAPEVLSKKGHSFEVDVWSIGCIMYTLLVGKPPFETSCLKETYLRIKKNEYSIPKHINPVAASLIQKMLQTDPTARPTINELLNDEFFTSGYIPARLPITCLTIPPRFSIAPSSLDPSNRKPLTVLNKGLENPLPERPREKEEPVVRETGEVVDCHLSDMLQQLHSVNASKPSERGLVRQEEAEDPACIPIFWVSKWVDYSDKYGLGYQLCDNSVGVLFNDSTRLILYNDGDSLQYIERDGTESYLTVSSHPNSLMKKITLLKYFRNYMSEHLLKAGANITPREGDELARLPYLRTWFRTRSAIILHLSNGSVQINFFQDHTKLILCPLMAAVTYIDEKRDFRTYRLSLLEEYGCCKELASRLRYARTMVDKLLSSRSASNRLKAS

Sequence of Ribosomal protein S6 kinase alpha-1 (Q15418 whole entry): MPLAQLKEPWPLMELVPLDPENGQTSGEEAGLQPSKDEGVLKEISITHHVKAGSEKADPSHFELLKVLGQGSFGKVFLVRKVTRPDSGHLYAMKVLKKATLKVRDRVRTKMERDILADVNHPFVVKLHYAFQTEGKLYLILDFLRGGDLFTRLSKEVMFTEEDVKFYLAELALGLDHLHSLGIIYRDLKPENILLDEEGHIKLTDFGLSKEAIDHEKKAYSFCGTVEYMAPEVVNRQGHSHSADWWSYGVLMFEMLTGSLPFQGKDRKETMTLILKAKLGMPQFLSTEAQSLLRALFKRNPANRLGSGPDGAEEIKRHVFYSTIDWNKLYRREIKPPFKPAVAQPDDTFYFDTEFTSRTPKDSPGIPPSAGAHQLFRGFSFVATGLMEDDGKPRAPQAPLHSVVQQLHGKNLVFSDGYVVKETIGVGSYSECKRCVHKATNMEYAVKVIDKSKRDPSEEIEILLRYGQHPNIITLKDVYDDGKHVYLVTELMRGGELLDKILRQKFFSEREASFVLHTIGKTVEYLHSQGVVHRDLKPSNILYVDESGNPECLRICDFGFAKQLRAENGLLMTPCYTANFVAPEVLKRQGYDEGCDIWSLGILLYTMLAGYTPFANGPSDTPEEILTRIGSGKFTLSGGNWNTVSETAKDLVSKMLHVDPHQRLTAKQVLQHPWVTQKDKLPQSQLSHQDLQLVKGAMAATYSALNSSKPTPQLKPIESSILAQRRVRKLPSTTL
Sequence of Tyrosine-protein kinase Srms (Homo sapiens) (Q9H3Y6 whole entry): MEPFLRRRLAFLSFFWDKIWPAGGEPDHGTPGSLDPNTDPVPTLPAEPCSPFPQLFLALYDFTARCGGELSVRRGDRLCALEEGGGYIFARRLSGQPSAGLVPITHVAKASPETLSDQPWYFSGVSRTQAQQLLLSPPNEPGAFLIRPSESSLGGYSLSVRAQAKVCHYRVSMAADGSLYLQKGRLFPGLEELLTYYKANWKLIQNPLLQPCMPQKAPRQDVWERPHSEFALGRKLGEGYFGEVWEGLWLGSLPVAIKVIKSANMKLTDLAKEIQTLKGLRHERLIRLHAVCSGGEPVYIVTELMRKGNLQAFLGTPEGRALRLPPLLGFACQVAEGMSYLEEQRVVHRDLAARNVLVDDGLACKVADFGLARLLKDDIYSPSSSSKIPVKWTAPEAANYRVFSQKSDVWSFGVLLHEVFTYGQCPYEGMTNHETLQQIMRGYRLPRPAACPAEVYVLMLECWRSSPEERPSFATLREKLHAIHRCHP
Sequence of Tyrosine-protein kinase CSK (Homo sapiens) (P41240 2-450 limits assumed): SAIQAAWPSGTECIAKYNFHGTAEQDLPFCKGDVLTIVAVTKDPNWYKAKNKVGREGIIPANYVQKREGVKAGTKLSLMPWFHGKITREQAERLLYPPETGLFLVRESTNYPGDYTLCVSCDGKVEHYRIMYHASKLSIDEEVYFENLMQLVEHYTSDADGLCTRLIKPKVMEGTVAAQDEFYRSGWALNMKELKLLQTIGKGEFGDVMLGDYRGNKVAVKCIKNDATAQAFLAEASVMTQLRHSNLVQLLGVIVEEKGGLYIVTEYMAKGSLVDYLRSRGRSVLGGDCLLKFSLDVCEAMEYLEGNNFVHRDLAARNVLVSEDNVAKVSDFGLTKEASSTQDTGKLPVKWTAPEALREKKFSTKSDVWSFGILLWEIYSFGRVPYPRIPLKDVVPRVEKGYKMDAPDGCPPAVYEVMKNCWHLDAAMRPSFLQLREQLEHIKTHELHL

As for `C=CC(=O)Nc1cccc(C(=O)Nc2ccc(Nc3cc(-c4[nH]c(SC)nc4C)ccn3)cc2)c1`, the % of control is 95% in test [1] (at 1 µM) and 94% in test [1] (at 5 µM).
`Cc1cc([C@@H](C)Nc2ccccc2C(=O)O)c2nc(N3CCOCC3)cc(=O)n2c1` [AZD-6482] returned a % of control in test [2] of 100%.
`COc1cc(Nc2nc(C)cc(-c3cnn4nc(OC)ccc34)n2)cc(C(F)(F)F)c1`: the % of control in test [3] came to 73%.
For `O=C(NOC[C@H](O)CO)c1ccc(F)c(F)c1Nc1ccc(I)cc1F`, in test [4], the % of control is 95%.
On to `CC[C@@H]1[C@H](F)C(=O)N[C@@H]1COc1nccc2cc(C(N)=O)c(OC)cc12` [ZIMLOVISERTIB], for which the % of inhibition in test [5] worked out at 12.6%.
As for `N#Cc1cccc(-c2c[nH]c3ncnc(N4CCOCC4)c23)c1`, the % of control in test [6] was 96%. Also, the % of inhibition in test [7] was found to be 56%.
As for `C=CC(=O)Nc1ccc(C(=O)Nc2[nH]nc3c2CN(C(=O)N[C@H](CN(C)C)c2ccccc2)C3(C)C)cc1`, the % of engagement in test [8] turned out to be 8.1%.
